Data set [1] concerns L. infantum axenic amastigotes. Briefly: In vitro antileishmanial evaluation on axenic amastigotes (resazurin viability). The note with it: 72 h incubation then resazurin 24 h, triplicate, three independent experiments, read-out: L. infantum Axenic Amastigotes IC50 (µM) ± S.D. Format: cell-based, Leishmania infantum. Here is the method: Cultures of axenic amastigotes of L. infantum were adapted from. Briefly, axenic amastigotes of L. infantum were obtained from late log promastigotes diluted at 1 × 10^6/mL in M199 complete medium acidified at pH 5.5 and cultured at 37 °C with 5% CO2.
The evaluations of activity on axenic amastigotes were adapted from the protocols previously described. […] Cell viability was then monitored as described above. The activity of the compounds was expressed as IC50, which was determined by nonlinear regression using GraphPad Prism 7.0.
On the technique in general: The colour change of resazurin is a common sign of viable cells or microbes.

Data set [2] deals with L. infantum intramacrophagic amastigotes. Briefly: In vitro antileishmanial evaluation on intramacrophage amastigotes in RAW264.7 macrophages (Giemsa counting). The data set is classed as cell-based, Leishmania infantum. To be noted: infected RAW264.7 macrophages, 48 h of treatment, amastigotes per macrophage counted, read-out: L. infantum Intramacrophagic Amastigotes IC50 (µM) ± S.D. Here is the method:
Promastigotes of Leishmania infantum (MHOM/FR/2008/LEM5700) were cultured in the dark at 26 °C with 5% CO2 in M199 complete medium containing M199 medium supplemented with adenosine (100 µM), hemin (0.5 mg/L), Hepes (40 mM) pH 7.4, and heat-inactivated fetal bovine serum (10%; HIFBS). Cultures of axenic amastigotes of L. infantum were adapted from. Briefly, axenic amastigotes of L. infantum were obtained from late log promastigotes diluted at 1 × 10^6/mL in M199 complete medium acidified at pH 5.5 and cultured at 37 °C with 5% CO2.
(§1) The RAW 264.7 macrophages (ATCC) were cultured at 37 °C with 5% CO2 in DMEM complete medium containing Dulbecco’s Modified Eagle’s Medium (DMEM, Invitrogen, Thermo-Fisher, Villebon-sur-Yvette, France) supplemented with penicillin-streptomycin (100 U/mL; Invitrogen) and heat-inactivated fetal bovine serum (10%; HIFBS).
Concerning the evaluation on intramacrophage amastigotes, the determination of the cytotoxicity as presented above was necessary to use the highest drug concentrations to be studied on the intramacrophage amastigote model. The evaluation on the intracellular form on the parasite was performed as previously described. RAW264.7 macrophages were plated in 16-well Lab-Tek chamber slides (Thermo-Fisher Villebon-sur-Yvette, France) at a density of 2 × 10^4 cells per well and incubated for 24 h at 37 °C with 5% CO2. Axenic amastigotes were differentiated as described above, centrifuged at 2000× g for 10 min, resuspended in DMEM complete medium, and added to each well to reach a 16:1 parasite to macrophage ratio. After 24 h of infection at 37 °C with 5% CO2, extracellular parasites were removed, and DMEM complete medium (100 µL) containing two-fold serial dilutions of the compounds, from 100 µM to 0.049 µM, was added to each well. A positive control treated with 1% DMSO was added to each Lab-tek chamber slide. After 48 h of treatment, the medium was removed and cells were fixed in methanol for 1 min, stained in 10% Giemsa (Merck, Guyancourt, France) for 5 min, and further rinsed in water before observation in phase contrast at the microscope (Olympus CX31; Olympus, Rungis, France). The number of amastigotes was counted by two independent experimenters for a total of 300 macrophages per well and the ratio of amastigotes per macrophage was determined for each condition. This ratio was further compared with the one of the positive controls, considered as 100%, to determine a percentage of inhibition (% I), as follows: % I = 100 − [(ratio of amastigotes per macrophage in treated cells/ratio of amastigotes per macrophages in untreated cells) × 100]. The activity of the compounds was expressed as IC50, which was determined by nonlinear regression using GraphPad Prism 7.0. […] In vitro antileishmanial evaluations were performed in triplicate in three independent experiments.

The test system of the next data set is RAW 264.7 macrophages. The experiment in a line: In vitro cytotoxicity on RAW 264.7 macrophages (resazurin). The data set is classed as cell-based. To be noted: 48 h of incubation, read-out: Cytotoxicity on RAW 264.7 CC50 (µM) ± S.D. As for the experimental part:
as §1
Cells were plated in 96-well microplates at a density of 2 × 10^4 cells per well. […] In living cells, resazurin is reduced in resorufin, and this conversion is monitored by measuring OD570nm (resorufin) and OD600nm (resazurin; multimode microplate reader Spark®, Tecan, Lyon, France). […] In vitro cytotoxicity assays were performed in triplicate in three independent experiments.

The record followed here is PMC9693141 (Molecules, 2022).

Where two headings read alike, the source gives them in different places.

For the compound `Cn1c(=O)c2c(c3ccccc31)OC(C)(C)C1CCC(C)(O)C(Cl)C21` (stereo not shown) [Compound 3, Chloroaustralasine A], the half-maximal inhibitory concentration (IC50) in data set [1] is 8.1 ± 1.4 µM; in data set [1] (Leishmania infantum), 8 µM; in data set [2] (Leishmania infantum) it was over 50 µM.

For `CC1(O)CCC2C(c3c(c4ccccc4[nH]c3=O)OC2(C)C)C1Cl` (stereo not shown) [Compound 4], the IC50 in data set [1] (Leishmania infantum) is 18.6 ± 2.5 µM; in data set [2] (Leishmania infantum) it was over 6.25 µM.

For `Cn1c(=O)c2c(c3ccccc31)OC1(C)CCCC(C)(C)C1=C2` (stereo not shown) [Compound 11, 5,8,8,11a-Tetramethyl-5,8,9,10,11,11a-hexahydro-6H-chromeno [3,2-c]quinolin-6-one], the values for the IC50 in data set [1] (Leishmania infantum) and in data set [2] (Leishmania infantum) were over 100 µM and 14.7 ± 1.6 µM, respectively.

`Cn1c(=O)c2c(c3ccccc31)OC1(C)CCC3C1C2C3(C)C` (stereo not shown) [Compound 12, 1,1,3a,9-Tetramethyl-1,1a,1a1,2,3,3a,9,10b-octahydro-10H-4-oxa-9-azacyclobuta [7,1]indeno [5,6-a]naphthalen-10-one]: the results for the IC50 in data set [1] (Leishmania infantum) and in data set [2] (Leishmania infantum) were 42.6 ± 2.1 µM and over 50 µM, respectively.

Regarding `CC(C)=CCCC1(C)C=Cc2c(c3ccccc3[nH]c2=O)O1` (stereo not shown) [Compound 14, 2-Methyl-2-(4-methylpent-3-en-1-yl)-2,6-dihydro-5H-pyrano [3,2-c]quinolin-5-one], the IC50 is 15.6 ± 1.8 µM in data set [1] (Leishmania infantum) and over 100 µM in data set [2] (Leishmania infantum).

`CC(C)=CCCC1(C)C=Cc2c(c3ccccc3n(Cc3ccccc3)c2=O)O1` (stereo not shown) [Compound 15a, 6-Benzyl-2-methyl-2-(4-methylpent-3-en-1-yl)-2,6-dihydro-5H-pyrano [3,2-c]quinolin-5-one]: the IC50 in data set [1] (Leishmania infantum) was 16.8 ± 1.8 µM; in data set [2] (Leishmania infantum), 23.7 ± 6.5 µM.

On to `COc1cccc(Cn2c(=O)c3c(c4ccccc42)OC(C)(CCC=C(C)C)C=C3)c1` (stereo not shown) [Compound 15b, 6-(3-Methoxybenzyl)-2-methyl-2-(4-methylpent-3-en-1-yl)-2,6-dihydro-5H-pyrano [3,2-c]quinolin-5-one], for which the IC50 was 15 ± 1.7 µM in data set [1] (Leishmania infantum) and over 25 µM in data set [2] (Leishmania infantum).

Consider `CC(C)=CCCC1(C)C=Cc2c(c3ccccc3n(Cc3ccccn3)c2=O)O1` (stereo not shown) [Compound 15c, 2-Methyl-2-(4-methylpent-3-en-1-yl)-6-(pyridin-2-ylmethyl)-2,6-dihydro-5H-pyrano [3,2-c]quinolin-5-one], for which the IC50 in data set [1] (Leishmania infantum) is 14.2 ± 4.3 µM; in data set [2] (Leishmania infantum), over 25 µM.

On to `COCCn1c(=O)c2c(c3ccccc31)OC(C)(CCC=C(C)C)C=C2` (stereo not shown) [Compound 15d, 6-(2-Methoxyethyl)-2-methyl-2-(4-methylpent-3-en-1-yl)-2,6-dihydro-5H-pyrano [3,2-c]quinolin-5-one], for which the results for the IC50 in data set [1] (Leishmania infantum) and in data set [2] (Leishmania infantum) were 17.8 ± 2.3 µM and over 25 µM, respectively.

Consider `CC(C)=CCCC1(C)C=Cc2c(c3ccccc3n(CCc3ccccc3)c2=O)O1` (stereo not shown) [Compound 15f, 2-Methyl-2-(4-methylpent-3-en-1-yl)-6-phenethyl-2,6-dihydro-5H-pyrano [3,2-c]quinolin-5-one], for which the figures for the IC50 in data set [1] (Leishmania infantum) and in data set [2] (Leishmania infantum) were 9.8 ± 2.9 µM and over 50 µM, respectively.

With `CCCCCn1c(=O)c2c(c3ccccc31)OC(C)(CCC=C(C)C)C=C2` (stereo not shown) [Compound 15g, 2-Methyl-2-(4-methylpent-3-en-1-yl)-6-pentyl-2,6-dihydro-5H-pyrano [3,2-c]quinolin-5-one], the IC50 in data set [1] (Leishmania infantum) was 82.7 ± 6.5 µM; in data set [2] (Leishmania infantum), 29.5 ± 9.9 µM. The 50% cytotoxic concentration (CC50) in the data set with RAW 264.7 macrophages is over 100 µM.

With `CC(C)=CCCC1(C)C=Cc2c(c3ccccc3n(S(=O)(=O)c3ccccc3)c2=O)O1` (stereo not shown) [Compound 15h, 2-Methyl-2-(4-methylpent-3-en-1-yl)-6-(phenylsulfonyl)-2,6-dihydro-5H-pyrano [3,2-c]quinolin-5-one], the IC50 in data set [1] (Leishmania infantum) and in data set [2] (Leishmania infantum) was over 100 µM throughout.

`CC(C)=CCCC1(C)C=Cc2c(c3ccccc3n(C(=O)Oc3ccccc3)c2=O)O1` (stereo not shown) [Compound 15i, Phenyl 2-methyl-2-(4-methylpent-3-en-1-yl)-5-oxo-2H-pyrano [3,2-c]quinoline-6(5H)-carboxylate]: the IC50 was 12.9 ± 3.2 µM in data set [1] (Leishmania infantum) and over 15 µM in data set [2] (Leishmania infantum).

Turning to `CC(C)=CCCC1(C)C=Cc2c(c3ccccc3n(C(=O)OC(C)(C)C)c2=O)O1` (stereo not shown) [Compound 15j, tert-Butyl 2-methyl-2-(4-methylpent-3-en-1-yl)-5-oxo-2H-pyrano [3,2-c]quinoline-6(5H)-carboxylate], the IC50 was 9.1 ± 0.4 µM in data set [1] (Leishmania infantum) and over 25 µM in data set [2] (Leishmania infantum).

With `COC(=O)CCCCn1c(=O)c2c(c3ccccc31)OC(C)(CCC=C(C)C)C=C2` (stereo not shown) [Compound 15k, Methyl 5-(2-methyl-2-(4-methylpent-3-en-1-yl)-5-oxo-2H-pyrano [3,2-c]quinolin-6(5H)-yl)pentanoate], the IC50 stood at 14.6 ± 2.1 µM in data set [1] (Leishmania infantum) and 19 ± 2.2 µM in data set [2] (Leishmania infantum).

Take `CC(C)=CCCC1(C)C=Cc2c(c3ccccc3n(CCCCC(=O)O)c2=O)O1` (stereo not shown) [Compound 15l, 5-(2-Methyl-2-(4-methylpent-3-en-1-yl)-5-oxo-2H-pyrano [3,2-c]quinolin-6(5H)-yl)pentanoic acid]: the IC50 in data set [1] (Leishmania infantum) was 16.4 ± 1.7 µM; in data set [2] (Leishmania infantum), over 100 µM.

For `CC1(C)CCCC2(C)Oc3c(c(=O)n(Cc4ccccc4)c4ccccc34)C=C12` (stereo not shown) [Compound 16a, 5-Benzyl-8,8,11a-trimethyl-5,8,9,10,11,11a-hexahydro-6H-chromeno [3,2-c]quinolin-6-one], the IC50 in data set [1] (Leishmania infantum) was 7 ± 2.1 µM; in data set [2] (Leishmania infantum) it was over 25 µM.

For `CCCCCCCCCCCCCCCCOP(=O)([O-])OCC[N+](C)(C)C` [Miltefosine, reference compound], the IC50 was 1 ± 0.3 µM in data set [1] (Leishmania infantum) and 6.7 ± 1.7 µM in data set [2] (Leishmania infantum).

For the compound Zanthosimuline [Compound 7], the half-inhibitory concentration (IC50) in data set [1] is 29.1 ± 1 µM; in data set [2] it was over 100 µM.

The term IC50 denotes the midpoint of a concentration-inhibition curve. One may read the CC50 as the concentration at which the toxic effect on the cells reaches its halfway point.
